Laboratory results as given in US9353088B2, “Crystalline pharmaceutical and methods of preparation and use thereof” (SARcode Bioscience Inc., priority 2009, dated 2016).
“Also recorded” adds a separate entry of the source. Like-named read-outs stand apart in the source and are kept apart here.

Key:
LFA-1 = target: T1, LFA-1 (Homo sapiens, UniProt P05107+P20701); assay: in vitro cell assays (cell attachment and SEB IL-2 release); type: cell-based
T1 construct: LFA-1 levels in in vitro cell assays (cell attachment and SEB IL-2 release); endogenous in cells; host or cells: human T-cell lines (HuT 78 / Jurkat) and human PBMC
T1 sequence (P20701 26-1170): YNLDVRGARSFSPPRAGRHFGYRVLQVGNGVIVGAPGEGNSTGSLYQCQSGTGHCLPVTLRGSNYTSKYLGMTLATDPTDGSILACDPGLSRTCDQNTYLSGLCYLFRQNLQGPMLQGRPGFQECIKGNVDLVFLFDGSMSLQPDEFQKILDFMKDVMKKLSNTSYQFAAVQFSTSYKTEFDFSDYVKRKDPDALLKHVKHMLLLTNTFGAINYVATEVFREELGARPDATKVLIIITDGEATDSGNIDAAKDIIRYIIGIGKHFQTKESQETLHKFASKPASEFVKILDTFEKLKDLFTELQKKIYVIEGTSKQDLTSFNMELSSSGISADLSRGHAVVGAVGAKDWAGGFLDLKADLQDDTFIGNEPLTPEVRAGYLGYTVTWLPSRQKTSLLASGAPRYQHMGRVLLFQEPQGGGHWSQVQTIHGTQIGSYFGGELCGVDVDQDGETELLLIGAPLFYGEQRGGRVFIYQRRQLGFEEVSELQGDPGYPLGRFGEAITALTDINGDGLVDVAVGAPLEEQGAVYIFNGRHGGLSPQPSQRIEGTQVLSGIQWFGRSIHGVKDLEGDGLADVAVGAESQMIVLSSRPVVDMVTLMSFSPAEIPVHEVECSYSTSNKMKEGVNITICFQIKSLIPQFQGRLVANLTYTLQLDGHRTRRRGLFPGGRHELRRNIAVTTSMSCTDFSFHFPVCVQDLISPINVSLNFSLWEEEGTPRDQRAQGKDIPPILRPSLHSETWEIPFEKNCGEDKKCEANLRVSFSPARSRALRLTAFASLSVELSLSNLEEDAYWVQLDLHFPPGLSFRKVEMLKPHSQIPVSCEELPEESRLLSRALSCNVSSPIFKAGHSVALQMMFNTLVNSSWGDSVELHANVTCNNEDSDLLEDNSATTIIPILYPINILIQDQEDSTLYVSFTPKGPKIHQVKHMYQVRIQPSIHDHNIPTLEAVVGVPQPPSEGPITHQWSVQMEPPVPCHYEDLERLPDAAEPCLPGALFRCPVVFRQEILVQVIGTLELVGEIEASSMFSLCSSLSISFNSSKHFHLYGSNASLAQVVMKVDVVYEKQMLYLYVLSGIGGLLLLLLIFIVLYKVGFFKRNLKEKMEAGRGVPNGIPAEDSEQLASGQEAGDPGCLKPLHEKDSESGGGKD
T1 sequence (P05107 23-769): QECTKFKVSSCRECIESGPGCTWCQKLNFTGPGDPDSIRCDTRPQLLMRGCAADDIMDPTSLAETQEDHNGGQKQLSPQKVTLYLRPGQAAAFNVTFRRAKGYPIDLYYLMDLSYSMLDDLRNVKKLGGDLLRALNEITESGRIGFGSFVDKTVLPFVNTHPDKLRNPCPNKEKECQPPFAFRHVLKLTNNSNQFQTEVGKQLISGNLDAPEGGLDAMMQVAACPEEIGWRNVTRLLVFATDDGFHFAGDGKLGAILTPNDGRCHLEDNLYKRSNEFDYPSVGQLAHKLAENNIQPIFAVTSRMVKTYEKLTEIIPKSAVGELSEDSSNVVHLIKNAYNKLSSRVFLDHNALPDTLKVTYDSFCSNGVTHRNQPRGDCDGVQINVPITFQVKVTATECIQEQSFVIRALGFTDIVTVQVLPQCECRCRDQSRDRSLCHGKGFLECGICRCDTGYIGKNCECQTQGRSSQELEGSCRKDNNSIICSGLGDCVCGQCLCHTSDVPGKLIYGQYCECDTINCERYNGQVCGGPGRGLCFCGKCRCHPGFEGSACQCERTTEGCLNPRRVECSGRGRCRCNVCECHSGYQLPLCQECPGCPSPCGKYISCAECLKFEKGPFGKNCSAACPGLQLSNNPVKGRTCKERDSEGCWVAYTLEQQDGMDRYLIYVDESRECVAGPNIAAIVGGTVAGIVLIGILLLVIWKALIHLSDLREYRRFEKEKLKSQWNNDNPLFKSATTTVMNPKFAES

[1] = Solubility studies for dermal formulations; type: physicochemical
[2] = dog, in vivo
[3] = rabbit, in vivo
[4] = In-vitro percutaneous absorption following topical application
[5] = Pilot mini-pig dermal study; type: in vivo, mini-pigs; conditions: DMSO, gel, ointment, lotion at 1%, dermal TID for 7 days
[6] = Plasma PK after single IV bolus dose; type: in vivo; conditions: rat, rats, read-out: clearance rate
From the text: The systemic clearance rate can be calculated by various means known in the art. For example, the clearance rate for a drug may be calculated from an analysis of the drug concentration time profile for the rate of disappearance of a drug from the plasma following administration of the formulation, for example after a single intravenous injection. One of skill in the art could use a variety of methods to calculate and determine systemic clearance rates. For example, the rate of disappearance may be measured by analysis of the absorption, distribution, metabolism and excretion of a radiolabelled form of a drug or other means of measuring the level of drug in plasma, such as gas chromatography (Sapirstein et al., 1955, Am. Jour. Physiol., Vol. 181, pp. 330; U.S. Pat. No. 4,908,202), liquid chromatography-mass spectrometry methods (LCMS) or HPLC methods. As another example, the clearance rate may be calculated by introducing the formulation to the subject by continuous intravenous infusion until an equilibrium is reached at which the plasma level of the substance (as determined by analysis of plasma samples) is steady, at which point the infusion rate is equal to the rate of clearance from plasma (Earle et al., 1946, Proc. Soc. Exp. Biol. Med., Vol. 62, pp. 262 ff.) […]

[7] = 13-week ocular toxicity study with 4-week recovery; conditions: 13-week ocular (3%)
[8] = CNS effects, single bolus IV injection; type: in vivo, rats; conditions: 10.0 mg/kg IV, 1 minute to 6 hours postdose, 2/6 animals
From the text: No effect on any other parameters was observed.

[9] = 13-week IV toxicity study with 4-week recovery; type: in vivo, rats; conditions: Day 1
[10] = Cardiovascular effects in conscious telemetry-instrumented dogs, IV bolus; type: in vivo, dogs (beagles); conditions: IV bolus injection
[11] = Tear PK after single topical ocular instillation; conditions: single topical ocular instillation, 0.1, 1.0 or 3.0%
[12] = Plasma PK after single topical ocular instillation; conditions: post-dose
[13] = test system: micronuclei in polychromatic erythrocytes (PCE); assay: In vivo mouse bone marrow micronucleus assay; parameters: species or system CD-1 (ICR) BR mice; conditions: repeated IV administrations
[14] = test system: Chinese hamster ovary (CHO) cells; assay: In vitro chromosomal aberration assay in CHO cells; type: cell-based; conditions: with and without metabolic activation; except single toxic dose 3500 μg/mL without activation
From the text: The biological relevance of this response is equivocal due to cytotoxicity.

[15] = Single dose ocular tolerance; conditions: single dose ocular tolerance (10%)

## CS(=O)(=O)c1cccc(C[C@H](NC(=O)c2c(Cl)cc3c(c2Cl)CCN(C(=O)c2ccc4ccoc4c2)C3)C(=O)O)c1 [Compound of Formula I]
LFA-1
  IC50: 2 nM
[1]; ethanol/glycol/transcutol solution
  solubility: 10 % (w/w)
[1]; water/glycol/transcutol solution
  solubility: 2 % (w/w)
[2]
  level in vitreous fluid: not detected
[3]
  level in vitreous fluid: not detected
[4]; determined using [14C]-compound
  dose penetration into dermis: 2-4%
[4]; skin transport studies, microtomed human skin, 1% (w/w) prototypes
  compound level in dermis: greater than 10 micromolar
[5]
  toxicity: No toxicity was reported
[6]
  clearance: > 100 mL/min/kg
[7]
  NOAEL: 1.05 mg/eye/3× per day
[8]
  CNS observations: Transient miosis
[9]; daily IV bolus 10 mg/kg
  Cmax: 1045.3 ng/mL
[9]; daily IV bolus 30 mg/kg
  AUC0-n: 2345.5 ng·h/mL
  Cmax: 5117.3 ng/mL
[10]
  effects on electrocardiography or hemodynamic parameters: No effects
[11]
  time to maximal mean tear concentration: ≤ 30 min
[12]
  time of maximum plasma concentration: about 0.25 hrs
[13]
  bone marrow micronucleus result: no effect; also recorded: negative
[14]
  induction of structural chromosomal aberrations: negative
[15]
  NOAEL: 3.5 mg/eye/3× per day
